Reference: paper PMC8637440, “Structural Modifications Yield Novel Insights Into the Intriguing Pharmacodynamic Potential of Anti-inflammatory Nitro-Fatty Acids” (Frontiers in Pharmacology, 2021)

Key:
[1] = tested on: COX-2 expression; test: COX-2 expression in A549 cells (Western blot); assay type: cell-based, human; conditions: 24 h; for COX-2 expression in IL-1β-stimulated A549 cells: 10 µM
Method: Cytoplasmic and nuclear extracts (100 µg each) and 30 µg whole-cell lysates were diluted in 5× Laemmli loading dye and denatured for 10 min at 95°C, loaded on a 10% SDS polyacrylamide gel, and separated by gel electrophoresis for 15 min at 80 V followed by 60 min at 120 V. The separated proteins were blotted onto a nitrocellulose membrane (Hybond-C Extra, Amersham Biosciences Ltd., UK) using the Mini Trans-Blot® module (Bio-Rad, Hercules, California, United States) for 90 min at 90 V. The membrane was blocked with Odyssey blocking buffer (Li-Cor Biosciences, Bad Homburg, Germany) or 5% milk powder in TBS-T (Tris Buffered Saline with 0.1% Tween) for 1 h at room temperature (RT). The membranes were incubated with the primary antibodies overnight at 4°C, and then with the secondary antibodies for 1 h at RT. The primary antibodies were diluted 1:1,000 and the secondary antibodies were diluted 1:10,000 to 1:20,000. […] Upon detection, the membrane was washed three times with 1× PBS-T (Phosphate-Buffered Saline with 0.1% Tween) or TBS-T and finally once with 1× PBS or TBS before the protein–antibody interaction was visualized on an Odyssey Infrared Imaging System (Li-Cor Biosciences) at 700 nm or 800 nm depending on the fluorophore of the secondary antibody.
Suppl. Figure 6: Effects of NFA on cellular COX-2 expression. Representative Western Blot of A549 cells treated with (A) NFA with different carbon chain length and (B) different Michael acceptor position for 24 h without IL-1 β stimulation (1 ng/ml) and the densitometrical evaluation of n=4-5 experiments (C, D). Representative Western Blot of A549 cells stimulated with IL-1 β and subsequent treatment with (E) NFA with different carbon chain length and (F) different Michael acceptor position for 24 h and the densitometrical evaluation of n=4-5 experiments (G, H). Intracellular COX-2 levels were normalized to β-actin and presented as mean + SD. Statistical significance was calculated by one-way ANOVA with Bonferroni post-test. P-values of **** P ≦0.0001, **P ≦0.0021, and *P ≦0.03 are considered significant. COX, cyclooxygenase; DMSO , dimethyl sulfoxide; NFA, nitro fatty acids
(1 picture or pasted object on this page, not shown here)

[2] = tested on: NF-κB p65; test: NF-κB p65 transcription factor ELISA in TNFα-stimulated HCT-116 cells; assay type: cell-based; conditions: Homo sapiens; 10 µM, 14 h preincubation, then 10 ng/ml TNF-α 4 h, HCT-116, ELISA; read-out: inhibition of NF-κB p65 signaling
Method: (§1) The Nrf-2 and NF-κB transcription factors in the nuclear extracts were detected using an Nrf-2 Transcription Assay Kit (Cayman Chemical, # 600590) and NF-κB (p65 and p50) Transcription Factor Assay Kit (Cayman Chemical, # 10007889 and # 10006912). Prior to assay performance, the nuclear extracts were generated using a Nuclear Extraction Kit (Cayman Chemical, # 10009277). The assay was performed according to the manufacturer’s instructions. For all kits, the nuclear extracts were incubated overnight at 4°C. Development was carried out for 15–20 min or until the wells turned medium to dark blue. Five minutes after the stop solution had been added, the absorbance was read at 450 nm using a plate reader.
(§2) The proteasome inhibitor MG132 ([Lee and Goldberg, 1998]) was used as a positive control, as proteasomal inhibition leads to stabilization of I-κB and thus inhibits the activation of the NF-κB signaling pathway. We used a MG132 incubation period of 4 h as longer incubations have been described to activate NF-κB signaling ([Lee et al., 2013]).
(§3) FIGURE 1 Effects of NFA on the NF-κB p65 and p50 signaling pathway in colorectal cancer cells. […] Incubation for 4 h with the proteasome inhibitor MG132 (1 µM) served as the positive control. […] Values are normalized to protein concentration and unstimulated vehicle control. Data are represented as mean ± SD of (A) n = 3 (DMSO, 16.9.9, 9NOA control of right panel, 18.4.4, 18.6.7, and 18.9.10), n = 4 (all other derivatives) and (B) n = 5. Statistical significance was calculated by one-way analysis of variance (ANOVA) with Bonferroni post-test. *p ≤ 0.03, **p ≤ 0.0021, ***p ≤ 0.0002, ****p ≤ 0.0001 were considered significant versus TNF-α treatment.

[3] = tested on: NF-κB p50; test: NF-κB p50 transcription factor ELISA in TNFα-stimulated HCT-116 cells; assay type: cell-based, human; conditions: 14 h preincubation, then 10 ng/ml TNF-α 4 h, HCT-116, ELISA; for inhibition of NF-κB p50 signaling: 10 µM
Method: as §1, §2, §3

[4] = molecular target: T1, sEH (Homo sapiens, UniProt P34913); test: Cell-based sEH activity assay in HepG2 cells; parameters: endogenous in cells; host or cells: HepG2; conditions: for inhibition of sEH activity in HepG2 cells: 10 µM, 24 h
T1 sequence (P34913 1-555): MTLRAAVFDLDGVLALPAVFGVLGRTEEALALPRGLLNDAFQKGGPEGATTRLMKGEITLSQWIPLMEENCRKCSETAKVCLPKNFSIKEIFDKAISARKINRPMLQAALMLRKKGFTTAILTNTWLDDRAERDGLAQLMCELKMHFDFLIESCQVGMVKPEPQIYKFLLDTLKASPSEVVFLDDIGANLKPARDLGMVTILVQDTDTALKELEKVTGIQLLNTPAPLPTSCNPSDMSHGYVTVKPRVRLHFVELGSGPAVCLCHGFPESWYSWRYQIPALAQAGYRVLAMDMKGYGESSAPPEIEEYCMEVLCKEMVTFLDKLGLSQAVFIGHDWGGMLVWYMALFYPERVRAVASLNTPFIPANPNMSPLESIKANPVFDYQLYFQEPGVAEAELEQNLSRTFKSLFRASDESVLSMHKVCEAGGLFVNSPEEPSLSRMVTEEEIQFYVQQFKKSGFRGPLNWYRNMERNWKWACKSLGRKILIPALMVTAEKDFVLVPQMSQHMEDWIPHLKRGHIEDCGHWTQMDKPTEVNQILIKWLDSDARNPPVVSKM
Method: sEH activity in the cells was analyzed using a Soluble Epoxide Hydrolase Cell-Based Assay Kit (Cayman Chemical, #600090). […] Following incubation, the cells were processed according to the manufacturer’s instructions. The assay uses an internal signal subtraction to minimize potential errors generated by sEH-independent product formation due esterase mediated hydrolysis. The fluorescence intensity of the samples was measured in a plate reader at excitation/emission wavelengths of 330/465 nm sEH activity was calculated by the 6-methoxy-2-naphthaldehyde standard curve.
FIGURE 3 Effects of NFA on sEH activity. […] Data are the mean ± SEM of n = 3–7. […] The cells were lysed, and hydrolase activity was measured by Epoxy Fluor 7 lysis. […] Statistical significance was calculated by one-way ANOVA with Bonferroni post-test and multiple comparisons against the DMSO control.

Row | inhibition of sEH activity in HepG2 cells [4] | Compound | COX-2 expression in IL-1β-stimulated A549 cells [1] | inhibition at 10 µM [2] | inhibition of NF-κB p50 signaling [3] | further results
1 | – | CCCCCCCCCCCCC=C(CCCC(=O)O)[N+](=O)[O-] [18.5.5, 5-nitro-octadec-5-enoic acid] | highest effects | – | – | –
2 | – | CCCCCCCCCCC=C(CCCCCC(=O)O)[N+](=O)[O-] [18.7.7, 7-nitro-octadec-7-enoic acid] | highest effects | ~90% | most effective p50 inhibitors | COX-2 gene expression in non-stimulated A549 cells ([1]; without IL-1β): clearly increased COX-2 gene expression
3 | – | CCCCCCCCCC=C(CCCCCCC(=O)O)[N+](=O)[O-] [18.8.8, 8-nitro-octadec-8-enoic acid] | highest effects | 50% | most effective p50 inhibitors | –
4 | – | CCCCCCCCCC(=CCCCCCCC(=O)O)[N+](=O)[O-] [18.8.9, 9-nitro-octadec-8-enoic acid] | – | 50% | most effective p50 inhibitors | –
5 | – | CCCCCCCCC=C(CCCCCCCC(=O)O)[N+](=O)[O-] [18.9.9, 9-nitro-octadec-9-enoic acid] | – | 50% | most effective p50 inhibitors | inhibition at 10 µM ([3]; Homo sapiens, read-out: inhibition of NF-κB p50 signaling): ~60%
6 | most efficient enzyme inhibition | CCCCCCCCC(=CCCCCCCCC(=O)O)[N+](=O)[O-] [18.9.10, 10-nitro-octadec-9-enoic acid] | – | – | – | –
7 | most efficient enzyme inhibition | CCCCCCCC=C(CCCCCCCCC(=O)O)[N+](=O)[O-] [18.10.10, 10-nitro-octadec-10-enoic acid] | – | – | – | –
8 | most efficient enzyme inhibition | CCCCCCC=C(CCCCCCCCCC(=O)O)[N+](=O)[O-] [18.11.11, 11-nitro-octadec-11-enoic acid] | – | – | – | –

Row | Compound | inhibition of sEH activity in HepG2 cells [4] | COX-2 expression in IL-1β-stimulated A549 cells [1] | inhibition at 10 µM [2] | inhibition of NF-κB p50 signaling [3] | further results
9 | CCCCCCCC/C=C\CCCCCCCC(=O)O [OA, oleic acid, reference compound] | strong suppressive effect | – | – | – | inhibition at 10 µM ([4]; HepG2, 24 h): > 50%
